Test results reported in patent US20230165806A1, “Topical Therapy of Skin Fibrosis and Melanoma” (Board of Regents, The University of Texas System, priority 2021, published 2023).

Assay: Solubility of NAVI in COA ionic liquid
Assay type: physicochemical
Description: Skin melanoma remains one of the fastest-growing and the most common types of cancer in the United States and worldwide. Although primary melanoma can be removed by surgery if detected, advanced metastatic melanoma cannot be managed by surgery alone and thus an alternative and effective therapeutic approach is required. Direct local application of anti-cancer drugs may effectively treat topical cancerous skin lesions when surgery is not feasible. However, these therapies are severely limited due to the protective nature of the skin and the fact that current topical treatments may cause skin irritation, burning, light sensitivity, scaling, and inflammation. To treat early-stage melanoma, we have developed a topical formulation of Navitoclax (NAVI), a BCL-2 inhibitor that upregulates apoptosis, in association with an ionic liquid composed of Choline Octanoate (COA) at a molar ratio of 1:1. NAVI is a small hydrophobic molecule that solubilizes at 20% (w/v) when dissolved into 50% (DW v/v) COA. […] Therefore, COA-mediated topical delivery of NAVI enhanced transportation through the skin barrier and held the drug in the deeper skin layers for an extended period compared to the control.
The main challenges in treating fibrosis with chemotherapeutics are epidermal layer penetration, the appropriate concentration, and drug retention within the layer for a more extended period. […]

solubility (choline octanoate (COA) ionic liquid, aqueous with cosolvent or surfactant or cyclodextrin, with COA, read-out: solubility of NAVI increased by COA): ≤ 150 µg/mL
solubility of NAVI (dissolved into 50% (DW v/v) COA): 20 % (w/v)
Compound: CC1(C)CCC(c2ccc(Cl)cc2)=C(CN2CCN(c3ccc(C(=O)NS(=O)(=O)c4ccc(N[C@H](CCN5CCOCC5)CSc5ccccc5)c(S(=O)(=O)C(F)(F)F)c4)cc3)CC2)C1 [NAVI, Navitoclax]
